What was measured:
[1] = Example 4: cannabis/SNAC oral rat pharmacokinetic (PK) study; assay type: in vivo, rats; details: for Cmax increase over cannabis alone: oral gavage, 50 mg/kg cannabis extract with 500 mg/kg SNAC versus 25 mg/kg cannabis alone
Method: Example 4. Summary of cannabis/SNAC oral rat pharmacokinetic (PK) study.
Methods. Animals were dosed on Day 1 and a series of blood samples were collected over a period of 4 hours post dose for pharmacokinetic evaluation. Animals were euthanized following collection of their last blood sample.

study participants [2] = assay: Example 1: onset and duration of action of orally administered cannabis/SNAC composition (self-reported euphoria/dysphoria, 200 mg SNAC); assay type: in vivo, human; details: oral cannabinoid formulation, 200 mg SNAC
Method: Example 1. […] This study was designed to assess the utility of SNAC in enabling a rapid-acting oral form of cannabis.
Selection of Participants. Six study participants were recruited to ingest cannabis compositions and record the onset, duration, and intensity of cannabis-induced euphoria and/or dysphoria.
(§1) Formulations. The selected cannabis concentrate is commercially available and was provided to participants in an ethanol solution. The concentrate contains 8 mg THC per dose. It was selected because it contains a high percentage of THC, which provides a noticeable effect on user-reported “euphoria”.
(§2) Methods. For the Control experiment, each participant mixed the cannabis concentrate with 15 ml (one tablespoon) of aqueous ethanol, and immediately swallowed the mixture.
(§3) For both the Control experiment and the Test experiment, each participant recorded the time of dose administration, the time of onset of euphoria and/or dysphoria, and the observed level of euphoria and/or dysphoria in fifteen minute intervals for five hours following administration of the cannabis dose. Euphoria and dysphoria were reported using a scale value, in a range from 1-10.

study participants [3] = assay: Example 2: onset and duration of action of orally administered cannabis/SNAC composition at a low SNAC dose (100 mg); assay type: in vivo, human; details: oral cannabinoid formulation, 100 mg SNAC
Method: Example 2. […] This study was designed to assess the utility of SNAC in enabling a rapid-acting oral form of cannabis at a low dose.
Selection of Participants. Three study participants were recruited to ingest cannabis compositions and record the onset, duration, and intensity of cannabis-induced euphoria and/or dysphoria.
as §1, §2, §3

[4] = cited from earlier work

Row | Structure (SMILES) | Cmax increase over cannabis alone ([1]; rats) [fold] | mean maximum concentration Cmax ([1]; rats, single oral gavage, cannabis extract (THC/CBD 1:1) with SNAC, range over Groups 3-5 (25/250, 25/500, 50/500 mg extract/kg and mg SNAC/kg)) [ng/mL] | AUC0-Tlast ([1]; rats, single oral gavage, cannabis extract with SNAC, range over Groups 3-5) [ng·h/mL] | time to reach the mean maximum plasma concentration (Tmax) ([1]; rats, single oral gavage, cannabis extract with SNAC, range over Groups 3-5, post dose) [min] | effect on cannabinoid absorption ([1]; administered to rats by oral gavage) | effect of the absorption enhancer on the cannabinoid duration of action (study participants [2]) | effect of the absorption enhancer on the duration of action (study participants [3]) | duration of appetite stimulant effect ([4]; after administration) [h] | onset of action ([4]; after oral administration) [h] | peak effect ([4]; after oral administration) [h] | administered dose reaching the systemic circulation ([4]; oral, first pass hepatic metabolism and high lipid solubility)
1 | C=C(C)[C@@H]1CCC(C)=C[C@H]1c1c(O)cc(CCCCC)cc1O [CBD, cannabidiol] | 14.2 | 31.7 to 159.3 | 13.17 to 382.14 | 15 to 60 |  |  |  |  |  |  | 
2 | O=C([O-])CCCCCCCNC(=O)c1ccccc1O.[Na+] [SNAC, sodium N-[8-(2-hydroxybenzoyl)amino] caprylate] |  |  |  |  | enhances cannabinoid absorption | no effect | no effect |  |  |  | 
3 | CCCCCc1cc(O)c2c(c1)OC(C)(C)[C@@H]1CCC(C)=C[C@@H]21 [THC, (−)-trans-delta-9-tetrahydrocannabinol] | 6.9 |  |  |  |  |  |  | ≥ 24 | 0.5 to 1 | 2 to 4 | 10-20%

From patent US20230293479A1, “MEDICINAL COMPOUNDS AND NUTRITIONAL SUPPLEMENTS” (RECEPTOR HOLDINGS, INC., priority 2017, published 2023)
